# Entries after “also recorded” stand apart in the source; their conditions may differ. Read-outs that look alike come from different tables or passages of the source.
# Assays:
# [1] = test system: glioblastoma cell line U3013; assay: ATP viability assay (CellTiter-Glo); type: cell-based, human; details: U3013, dose response, CellTiterGlo ATP quantification
# Experimental: (§1) The human melanoma cell line SK-MEL-28 is a well established reference cell line in melanoma research (Goodfellow M, et al. J. Natl. Cancer Inst. 59: 221-226, 1977). Cells were cultured in MEM supplemented with 10% FCS. Glioblastoma cell line (U3013) was generated directly from patient-derived tumors (Kitambi et al. Cell. 2014: 157(2):313-28) and grown in serum-free media supplemented with N2, B27, EGF, and FGF-2 (20 ng/ml) using previously described methodology (Pollard et al., 2009).
# Culture plates were pre-coated with laminin (Sigma) for 3 hr at 10 ug/ml prior to use and confluent cells were split 1:3 to 1:5 using TrypLE Express (Invitrogen).
# (§2) Viability assay was conducted in 96 well microtiter plates seeded with 3000 cells. Cell viability was measured using CellTiter-Glo assay (Promega), according to the manufacturer's instructions. Luminescence was measured using Victor3 FA (Perkin Elmer) microtiter plate reader. Total luminescence was normalized relative to negative control and curve fitting performed using GraphPad Prism (v6.02) software. IC50 was determined using Cell Viability assay, and data was illustrated using GraphPad Prism (version 6.02)
# SK-Mel-28 cells [2] = assay: Long term toxicity (viability assay up to 25 days); type: cell-based, human
# Experimental: as §2
# (§3) SK-Mel-28 and Panc-1 cells were plated on 96 well plates. Three hours post-seeding, cells were treated with 10 µM, 1 µM, 0.1 µM and 0.01 µM of S2 or vehicle (DMSO). Viability assay was conducted after 24 h, 72 h, 5 days, 10 days, 15 days, 20 days and 25 days, as described above. Media was changed every two days. […] Cell viability at each concentration was quantified relative to DMSO control at any time point (each time point had its own control), and was presented as fraction of control. Each treatment and the adequate control and was performed in 3, 4 and 6 repeats. Error bars indicate standard error (SE).
# as §3, with “Vacquionol-1 SR (S2)” for “S2”
# Panc-1 cells [3] = assay: Long term toxicity (viability assay up to 25 days); type: cell-based, human
# Experimental: as §2, §3
# as §3, with “Vacquionol-1 SR (S2)” for “S2”
# KPC cells = assay: Vacuolization, bright field microscopy; type: cell-based, mouse; details: 5µM (3.3 µM elsewhere in the source) or 10µM, 18h
# Experimental: (§4) Cells were plated on glass slides and were treated with compound at the indicated concentrations for 18h before imaging. Digital images were taken using a Veleta camera (Olympus Soft Imaging Solutions).
# Panc-1 cells [4] = assay: Vacuolization, bright field microscopy; type: cell-based, human; details: Panc-1, 5µM or 10µM, 18h
# From the text: The following well-characterized human pancreatic ductal adenocarcinoma cell lines (ATCC) were used: HPAF II, BxPC-3, MIA-PaCa2 and Panc-1. These cell lines were generated from patient-derived tumors and are widely used model system to study pancreatic cancer (HPAF II: Kim YW, et al. Pancreas 4: 353-362, 1989; BxPC-3: Tan MH, et al. Cancer Invest. 4: 15-23, 1986; MIA-PaCa2: Yunis AA, et al. Int. J. Cancer 19: 128-135, 1977; Pacn-1: Lieber M, et al. Int. J. Cancer 15: 741-747, 1975).
# as §4
# SK-Mel-28 cells [5] = assay: Vacuolization, bright field microscopy; type: cell-based, human; details: SK-Mel-28, 5µM or 10µM, 18h
# Experimental: as §1, §4
# [6] = Pharmacokinetic evaluation in mice (plasma and brain); type: in vivo, male NMRI mice; details: for Kp / Tmax / Cmax: male, NMRI, mouse; for Kp: brain/plasma, single oral administration of 20 mg/kg
# Experimental: Compounds S1 and S2 were formulated at 0.4 mg/mL in 7.5% NMP, 10% Kolliphor in 0.9% NaCl (for i.v. administration) and at 2.0 mg/mL in 0.1% Tween 80, 0.5% Na-CMC in water (for p.o. administration).
# The pharmacokinetic properties of S1 and S2 were determined in male NMRI mice (Charles River, Germany) following single intravenous (i.v., tail vein, 2 mg/kg) or per oral (p.o, gavage, 20 mg/kg). Light isoflurane anaesthesia was used at i.v. administration, no anaesthesia was used at p.o. administration. Blood samples were kept on ice after sampling and centrigued at +4 °C, 1800 x g for 5 minutes to prepare plasma. Blood and homogenized brain samples were taken from animals at the following nominal time points: 15, 30, and 60 minutes, and 2, 4, 6, 8, 24, 48, 72 and 144 hours after dosing (n=3 samples/time-point). Blood sampling (400-600 microliters) was performed by orbital plexus collection under isoflurane anaesthesia into EDTA plasma tubes (BD Microtainer K2EDTA). Bioanalytical quantification of S1 and S2 was analysed in plasma and brain samples by a UPLC-MS/MS. Pharmacokinetics were calculated by non-compartmental analysis (NCA) from composite (mean) profiles using Phoenix WinNonlin Professional (v 6.3). Nominal sampling times and dose levels have been used for the NCA calculations. All animals dosed with S1 and S2 were systemically exposed to the test compound. The plasma and brain concentrations were detectable and analysed until 144 h.
# Brain sampling was performed after the end of blood sampling at the specified time points following euthanization and skull extraction. Brains were weighed and placed in test tubes and placed on wet ice. 4 mL PBS (pH 7.4) per 1 g of brain tissue was added to the test tube and brains were then homogenized using an Ultra-Turrax T25 homogenisator (Setting 2, 9500 rpm, 10s). The homogenates were frozen at -20° C immediately after homogenization.
# SK-Mel-28 = assay: ATP viability assay (CellTiter-Glo); type: cell-based; details: Homo sapiens
# Experimental: as §1, §2
compound,measurement,setting,value
"O[C@H](c1cc(-c2ccc(Cl)cc2)nc2ccccc12)[C@H]1CCCCN1 [S3, (R)-(2-(4-chlorophenyl)quinolin-4-yl)((R)-piperidin-2-yl)methanol]","in vitro cytotoxicity, comparison of isolated isomers",[1],S1 and S2 exhibit greater in vitro oncolytic potency than the corresponding S3 and S4 isomers; also recorded: S1 and S2 exhibit higher cytotoxicity on cancer cells than S3 and S4
"O[C@@H](c1cc(-c2ccc(Cl)cc2)nc2ccccc12)[C@@H]1CCCCN1 [S4, (S)-(2-(4-chlorophenyl)quinolin-4-yl)((S)-piperidin-2-yl)methanol]","in vitro cytotoxicity, comparison of isolated isomers",[1],S1 and S2 exhibit greater in vitro oncolytic potency than the corresponding S3 and S4 isomers; also recorded: S1 and S2 exhibit higher cytotoxicity on cancer cells than S3 and S4
"O[C@@H](c1cc(-c2ccc(Cl)cc2)nc2ccccc12)[C@H]1CCCCN1 [S2, (S)-(2-(4-chlorophenyl)quinolin-4-yl)((R)-piperidin-2-yl)methanol]","in vitro cytotoxicity, comparison of isolated isomers",[1],S1 and S2 exhibit greater in vitro oncolytic potency than the corresponding S3 and S4 isomers; also recorded: S1 and S2 exhibit higher cytotoxicity on cancer cells than S3 and S4
same,long term toxicity,"SK-Mel-28 cells [2]; SK-Mel-28, 10, 1, 0.1, 0.01 µM, up to 25 days",dose-dependent cytotoxic effect
same,"long term toxicity, lower concentrations","SK-Mel-28 cells [2]; SK-Mel-28, long term exposure of lower concentrations",complete death of the cells
same,long term toxicity,"Panc-1 cells [3]; Panc-1, 10, 1, 0.1, 0.01 µM, up to 25 days",dose-dependent cytotoxic effect
same,"long term toxicity, lower concentrations","Panc-1 cells [3]; Panc-1, long term exposure, 1µM",complete death
same,vacuole formation,KPC cells,stimulate vacuole formation
same,vacuole formation,KPC cells; listed as Vacquinol-1 SR (S2),stimulates vacuole formation
same,vacuole formation,Panc-1 cells [4],stimulate vacuole formation
same,vacuole formation,Panc-1 cells [4]; listed as Vacquinol-1 SR (S2),stimulates vacuole formation
same,vacuole formation,SK-Mel-28 cells [5],stimulate vacuole formation
same,vacuole formation,SK-Mel-28 cells [5]; listed as Vacquinol-1 SR (S2),stimulates vacuole formation
same,Brain AUC last,"[6]; brain, i.v., 2 mg/kg",9050 ng·h/mL
same,Brain Cmax,"[6]; brain, i.v., 2 mg/kg",777 ng/mL
same,Brain tlast,"[6]; brain, i.v., 2 mg/kg",72 h
same,Brain AUC last,"[6]; brain, p.o., 20 mg/kg",157000 ng·h/mL
same,Brain Cmax,"[6]; brain, p.o., 20 mg/kg",1490 ng/mL
same,Brain tlast,"[6]; brain, p.o., 20 mg/kg",144 h
same,Kp,"[6]; po, 20 mg/kg, read-out: exposure ratio AUC(brain/plasma)",0.9
same,Kp,"[6]; po, 20 mg/kg, read-out: exposure ratio Cmax(brain/plasma)",0.7
same,Tmax,"[6]; iv, brain, i.v., 2 mg/kg, read-out: Brain tmax",1 h
same,Cmax,"[6]; iv, plasma, 2 mg/kg",455 ng/mL
same,Tmax,"[6]; iv, plasma, i.v., 2 mg/kg, read-out: Plasma tmax",0.5 h
same,Tmax,"[6]; po, brain, p.o., 20 mg/kg, read-out: Brain tmax",6 h
same,Cmax,"[6]; po, plasma, 20 mg/kg",2050 ng/mL
same,Tmax,"[6]; po, plasma, p.o., 20 mg/kg, read-out: Plasma tmax",8 h
same,Plasma AUC last,"[6]; plasma, i.v., 2 mg/kg",14100 ng·h/mL
same,Plasma tlast,"[6]; plasma, i.v., 2 mg/kg",72 h
same,Plasma AUC last,"[6]; plasma, p.o., 20 mg/kg",183000 ng·h/mL
same,Plasma tlast,"[6]; plasma, p.o., 20 mg/kg",144 h
same,IC50,"SK-Mel-28; SK-MEL-28, 24 h",3600 nM
same,IC50,"SK-Mel-28; SK-MEL-28, 48 h",2400 nM
same,IC50,"SK-Mel-28; SK-MEL-28, 72 h",2100 nM

# From patent EP3064205A1, “Therapeutic use of isomeric forms of 2-(4-chlorophenyl)quinolin-4-yl)(piperidin-2-yl)methanol” (Glionova AB, priority 2015, dated 2016)
